≈ marks a conversion by molar mass, not a printed value. Where two headings read alike, the source gives them in different places.
Tests used:
S. aureus ATCC 29213 [1] = assay: Membrane depolarization, DiSC3(5) fluorescence; assay type: cell-based; conditions: 30 min
Procedure: Bacteria were grown overnight in CAMHB and sub-cultured the following day in CAMHB to exponential phase (OD600≈0.25). Exponential- and stationary-phase cells were washed in membrane assay buffer with or without 5 mM glucose, respectively, and resuspended at an OD600=0.25. DiSC3(5) was added to a final concentration of 1.5 μM and the solution was incubated in the dark at ambient temperature for 30 minutes to allow loading of the fluorescent dye into cell membranes. After the loading period, cells were diluted 50-fold (OD600=0.005) in depolarization buffer with or without glucose for exponential- or stationary-phase cells, respectively. Assays were initiated by the addition of antimicrobial agents over a range of concentrations and were monitored in real time by fluorescence spectroscopy (λex=612, λem=665) for a period of 30 minutes. […] Experiments were repeated three times and produced similar results; results from one assay are presented.

S. aureus ATCC 29213 [2] = assay: Membrane permeability, SYTO-9/propidium iodide fluorescence; assay type: cell-based; conditions: 30 min
Procedure: For membrane permeability assays, bacteria were prepared identically as described above for the membrane depolarization assay with the exception that SYTO-9 and propidium iodide (Invitrogen Corporation) were added at 5 μM and 30 μM, respectively. Experiments were repeated three times and produced similar results; results from one assay are presented.

S. aureus ATCC 29213 [3] = assay: Short duration (2 h) time-kill in membrane assay buffer; assay type: cell-based; conditions: for killing over short time course: fCmax
Procedure: Short duration (2 h) time-kill studies were performed in membrane assay buffer (see below) to characterize the killing of S. aureus ATCC 29213 under conditions used in the membrane depolarization and permeability assays. Exponential- and stationary-phase S. aureus ATCC 29213 cells were diluted to an OD600=0.005 (approx 10^6 CFU/mL) in membrane assay buffer (10 mM HEPES-C1, pH 7.5, 50 μg/mL CaCl2) with or without 5 mM glucose, respectively. Experiments were initiated by the addition of antimicrobial agents at the indicated concentrations and bacteria were enumerated by serial-dilution plating.

[4] = cited from earlier work; for estimated fCmax in plasma: human, in vivo, 200 mg
MRSA ATCC 33591 [5] = assay: Time-kill in nutrient-depleted CAMHB; assay type: cell-based, S. aureus; conditions: stationary-phase, 24-hour incubation, fCmax
Procedure: (§1) Nutrient-depleted CAMHB from each respective strain was prepared by 3 rounds of inoculation of CAMHB with exponential-phase bacteria, incubation overnight at 37° C. with rotation (225 rpm) and centrifugation (8000×g for 30 minutes) to remove bacteria. After the final round of inoculation, growth and centrifugation, the pH of the nutrient-depleted CAMHB was adjusted to pH=7.0 and the spent medium was filter-sterilized using a […] membrane (Corning Incorporated, Corning, N.Y.).
(§2) Nutrient-depleted CAMHB containing diluted antimicrobial agents was inoculated with stationary-phase bacteria from overnight cultures of the S. aureus strains at approximately 10^7 colony-forming units (CFU)/mL. Other experiments compared the killing of stationary- and exponential-phase S. aureus ATCC 29213 when inoculated into nutrient-depleted CAMHB containing the test agents. For assays involving daptomycin, nutrient-depleted CAMHB was supplemented with 50 μg/ml CaCl2 (8). All time-kill studies were performed in 96-well deep-well plates at 37° C. with rotation (225 rpm) in a total volume of 750 μL. Bacteria were enumerated by serial-dilution plating. Bacteriostatic and bactericidal activity of the antimicrobial agents were defined as a reduction in viable cell counts of <3 or ≥3 log at 24 hours relative to the starting inoculum, respectively (33). Experiments were repeated at least three times and produced similar results; results from one experiment are presented.

VRSA VRS5 [6] = assay: Time-kill in nutrient-depleted CAMHB; assay type: cell-based, S. aureus; conditions: stationary-phase, 24-hour incubation, fCmax
Procedure: as §1, §2

MRSA ATCC 33591 [7] = assay: MBEC system in vitro biofilm (MIC and MBEC); assay type: cell-based, S. aureus; conditions: for MBEC: 24-hour biofilm, 24 hours of exposure; for MIC: Staphylococcus aureus
Procedure: (§3) The commercially-available MBEC™ system (Innovotech; Edmonton, AB, Canada) was used following the manufacturer's protocol (17) to establish in vitro biofilms of S. aureus and to determine the minimal biofilm eradication concentration (MBEC) of oritavancin and comparator antimicrobial agents. The MBEC represents the concentration of antimicrobial agent required to sterilize the biofilm after 24 hours of exposure. The MBEC™ system also allows for the determination of the minimal inhibitory concentration (MIC) of the test agent against planktonic cells under the conditions of the biofilm assay.
(§4) 150 μL of bacterial inocula at 10^7 CFU/mL in tryptic soy broth was aliquoted into each well of an MBEC plate. Biofilms were established for 24 hours in a rotary incubator at 37° C. and 150 rpm. For experiments involving 72-hour biofilms, peg lids were transferred each day to 96-well plates containing 150 μL/well of fresh tryptic soy broth and incubated another 24 hours. Peg lids with established biofilms were washed once in sterile saline (200 μL/well) and then placed in plates containing antimicrobial agents diluted in CAMHB (200 μL/well). Antimicrobial agents were serially diluted in CAMHB in 96-well plates and peg lids were exposed for 24 hours or for the indicated times. Following antimicrobial challenge, peg lids were washed once in sterile saline then placed in recovery plates containing CAMHB (200 μL/well). The recovery plates were sonicated for 5 minutes in an ultrasonic sonicating bath (VWR Aquasonic model 550D) at the maximum setting then incubated for 24 hours and the MBECs recorded. MBECs were determined from at least three independent experiments; results represent the ranges of MBECs obtained. To enumerate the biofilm colony forming units (CFUs) on individual control pegs, pegs were broken off the lid using sterile forceps placed in 1 ml sterile saline, sonicated for 5 min and vortexed for 1 min at the highest setting. Bacteria were then enumerated by serial-dilution plating.
(§5) To prevent loss of oritavancin due to binding to vessel surfaces (3), the CLSI now recommends inclusion of 0.002% polysorbate-80 for oritavancin broth microdilution MIC determinations (9).

MSSA ATCC 29213 [8] = assay: MBEC system in vitro biofilm (MIC and MBEC); assay type: cell-based, S. aureus; conditions: for MBEC: 24-hour biofilm, 24 hours of exposure; for MIC: Staphylococcus aureus
Procedure: as §3, §4, §5

VRSA VRS5 [9] = assay: MBEC system in vitro biofilm (MIC and MBEC); assay type: cell-based, S. aureus; conditions: for MBEC: 24-hour biofilm, 24 hours of exposure; for MIC: Staphylococcus aureus, VRSA
Procedure: as §3, §4, §5

[10] = tested on: S. epidermidis ATCC 35984; assay: MBEC plate biofilm eradication, agents in combination; assay type: cell-based
Text: The following strains were used for in vitro biofilm studies: vancomycin (VAN)-susceptible Enterococcus faecalis ATCC 29212 (VSE), VAN-resistant E. faecalis ATCC 51299 (VanB VRE), E. faecium ATCC 51559 (VanA VRE), S. epidermidis ATCC 12228 and the slime-producing strain S. epidermidis ATCC 35984. Biofilms were established in MBEC™ Physiology & Genetics Assay plates (Innovotech; Edmonton, Canada).

MSSA ATCC 29213 [11] = assay: Time-kill in nutrient-depleted CAMHB; assay type: cell-based, S. aureus; conditions: 24 hour time point, estimated fCmax
Procedure: as §1, §2

[12] = tested on: stationary-phase MRSA ATCC 43300; assay: Ultrastructure by transmission electron microscopy of thin sections; assay type: cell-based, S. aureus; conditions: 3 hours in nutrient-depleted CAMHB; 1 μg/mL oritavancin, 16 μg/mL vancomycin
Procedure: Bacteria were fixed in 2.5% glutaraldehyde to cross-link proteins and help preserve morphological structure. Prior to embedding, the samples were treated with fresh 2.5% (vol/vol) glutaraldehyde in HEPES buffer (pH, 6.8) for 2 hours. The samples were then post-fixed in 2.0% (wt/vol) osmium tetroxide, followed by en bloc-staining with 2.0% (wt/vol) uranyl acetate, as a heavy-metal stain, to add contrast to the cells. The cells were then dehydrated through a series of ethanol washes then embedded in LR White resin. Once polymerized by curing, each culture sample was thin sectioned and stained by uranyl acetate and lead citrate so as to view the internal cellular constituents and the juxtaposition of cell envelope layers such as the plasma membrane and cell wall. Transmission electron microscopy was used to view the thin sections using a Philips CM10 under standard operating conditions at 100 kV.

[13] = tested on: exponentially-growing S. aureus (MSSA, MRSA, VRSA); conditions: actively dividing cells; cited from earlier work
[14] = oritavancin without polysorbate-80
[15] = planktonic cells shed from 24-hour peg biofilms, oritavancin without polysorbate-80, read-out: MIC

MIC (MRSA ATCC 33591 [7]; [15]) [mg/L] | MIC (MSSA ATCC 29213 [8]; [15]) [mg/L] | MIC (VRSA VRS5 [9]; [15]) [mg/L] | SMILES | dissipation of membrane potential (DiSC3(5) fluorescence) (S. aureus ATCC 29213 [1]; exponential-phase cells) | dissipation of membrane potential (DiSC3(5) fluorescence) (S. aureus ATCC 29213 [1]; stationary-phase cells) | membrane permeability (SYTO-9 fluorescence) (S. aureus ATCC 29213 [2]; exponential-phase cells) | membrane permeability (SYTO-9 fluorescence) (S. aureus ATCC 29213 [2]; stationary-phase cells) | killing over short time course (S. aureus ATCC 29213 [3]; exponential-phase cells) | estimated fCmax in plasma [4] [µg/mL] | MBEC (MRSA ATCC 33591 [7]; [14]) [µg/mL] | MBEC (MSSA ATCC 29213 [8]; [14]) [µg/mL] | MBEC (VRSA VRS5 [9]; [14]) [µg/mL] | other results
– | – | – | CCCCCCCCCC(=O)N[C@@H](Cc1c[nH]c2ccccc12)C(=O)N[C@H](CC(N)=O)C(=O)N[C@@H](CC(=O)O)C(=O)N[C@@H]1C(=O)NCC(=O)N[C@@H](CCCN)C(=O)N[C@@H](CC(=O)O)C(=O)N[C@H](C)C(=O)N[C@@H](CC(=O)O)C(=O)NCC(=O)N[C@H](CO)C(=O)N[C@@H]([C@H](C)CC(=O)O)C(=O)N[C@@H](CC(=O)c2ccccc2N)C(=O)O[C@@H]1C [Daptomycin, daptomycin] | small effect | did not effect changes | loss of fluorescence | no effect | Rapid killing | 4 | – | – | – | reduction in CFU (S. aureus ATCC 29213 [3]; stationary-phase cells, within the 2-hour time period, oritavancin at fCmax 800, daptomycin at fCmax): 0.7 log
2 to 4 (≈ 5.93 to 11.9 µM) | 8 (≈ 23.7 µM) | 4 to 8 (≈ 11.9 to 23.7 µM) | CC(=O)NC[C@H]1CN(c2ccc(N3CCOCC3)c(F)c2)C(=O)O1 [Linezolid, linezolid] | – | – | – | – | – | – | >128 | >128 | >128 | effect on bacterial cell numbers (MRSA ATCC 33591 [5]): no effect; effect on bacterial cell numbers (VRSA VRS5 [6]): no effect; MIC (MSSA ATCC 29213 [8]; 72-hour biofilms, read-out: planktonic MIC): 8 to 16 mg/L (≈ 23.7 to 47.4 µM)
– | – | – | COc1c(N2C[C@@H]3CCCN[C@@H]3C2)c(F)cc2c(=O)c(C(=O)O)cn(C3CC3)c12 [MOX, moxifloxacin] | – | – | – | – | – | – | – | – | – | MBEC in combination ([10]; combination of ORI and MOX required for sterilization): 4 mg/L
– | – | – | CO[C@H]1/C=C/O[C@@]2(C)Oc3c(C)c(O)c4c(c3C2=O)C2=NC3(CCN(CC(C)C)CC3)NC2=C(NC(=O)/C(C)=C\C=C\[C@H](C)[C@H](O)[C@@H](C)[C@@H](O)[C@@H](C)[C@H](OC(C)=O)[C@@H]1C)C4=O [RFB, rifabutin] | – | – | – | – | – | – | – | – | – | MBEC in combination ([10]; combination of ORI and RFB required for sterilization): 0.125 mg/L
< 0.03 | < 0.02 | 0.03 to 0.06 (≈ 0.0365 to 0.0729 µM) | CO[C@H]1/C=C/O[C@@]2(C)Oc3c(C)c(O)c4c(O)c(c(/C=N/N5CCN(C)CC5)c(O)c4c3C2=O)NC(=O)/C(C)=C\C=C\[C@H](C)[C@H](O)[C@@H](C)[C@@H](O)[C@@H](C)[C@H](OC(C)=O)[C@@H]1C [Rifampicin, rifampicin] | – | – | – | – | – | 2 | 0.25 to 4 | 4 | 4 | –
– | – | – | CN[C@H](CC(C)C)C(=O)N[C@H]1C(=O)N[C@@H](CC(N)=O)C(=O)N[C@H]2C(=O)N[C@H]3C(=O)N[C@H](C(=O)N[C@H](C(=O)O)c4cc(O)cc(O)c4-c4cc3ccc4O)[C@H](O)c3ccc(c(Cl)c3)Oc3cc2cc(c3O[C@@H]2O[C@H](CO)[C@@H](O)[C@H](O)[C@H]2O[C@H]2C[C@](C)(N)[C@H](O)[C@H](C)O2)Oc2ccc(cc2Cl)[C@H]1O [Vancomycin, vancomycin] | no effect on membrane potential | no effect on membrane potential | no effect on fluorescence | no effect on fluorescence | did not effect any change | – | ≥128 | >128 | >128 | less killing activity against stationary-phase cells compared to exponential-phase cells (MSSA ATCC 29213 [11]): approx 2.4 log; killing over short time course (S. aureus ATCC 29213 [3]; stationary-phase cells): did not effect any change; septal mid-line staining [12]: evident; MIC (MRSA ATCC 33591 [7]; 24 h): 1 to 2 mg/L (≈ 0.69 to 1.38 µM); MIC (MSSA ATCC 29213 [8]; 24 h): 1 mg/L (≈ 0.69 µM); MIC (MSSA ATCC 29213 [8]; 72 h, read-out: planktonic MIC): 2 to 16 mg/L (≈ 1.38 to 11 µM); MIC (VRSA VRS5 [9]; 24 h): > 128 mg/L; time required to exert bactericidal activity [13]: 24 h; estimated free trough concentration in plasma ([4]; humans, standard dose (oritavancin 200 mg)): 4 µg/mL

— patent US10201587B2, “Methods of inhibiting and treating biofilms using glycopeptide antibiotics” (MELINTA THERAPEUTICS, INC., priority 2008, dated 2019)
